Assay results from ChEMBL document CHEMBL2440076, “New triarylpyrazoles as broad-spectrum anticancer agents: design, synthesis, and biological evaluation” (Eur J Med Chem, 2013).

Key:
[1] = tested on: T47D; assay: Growth inhibition of human T47D cells assessed as cell growth at 10 uM after 48 hrs by sulforhodamine B assay; format: functional; settings: read-out: Activity
[2] = tested on: MCF7; assay: Growth inhibition of human MCF7 cells assessed as cell growth at 10 uM after 48 hrs by sulforhodamine B assay; format: functional; settings: MCF7, 48 h, read-out: Activity
[3] = tested on: MDA-MB-231; assay: Growth inhibition of human MDA-MB-231 cells assessed as cell growth at 10 uM after 48 hrs by sulforhodamine B assay; format: functional; settings: MDA-MB-231, 48 h, read-out: Activity
[4] = tested on: DU-145; assay: Growth inhibition of human DU145 cells assessed as cell growth at 10 uM after 48 hrs by sulforhodamine B assay; format: functional; settings: DU-145, 48 h, read-out: Activity
[5] = tested on: CAKI-1; assay: Growth inhibition of human CAKI-1 cells assessed as cell growth at 10 uM after 48 hrs by sulforhodamine B assay; format: functional; settings: CAKI-1, 48 h, read-out: Activity
[6] = tested on: SW-620; assay: Growth inhibition of human SW620 cells after 48 hrs by sulforhodamine B assay; format: functional; settings: SW-620, 48 h
[7] = tested on: KM12; assay: Growth inhibition of human KM12 cells after 48 hrs by sulforhodamine B assay; format: functional, cell-based; settings: KM12, 48 h
[8] = Growth inhibition of human HCC2998 cells after 48 hrs by sulforhodamine B assay; format: functional; settings: HCC 2998, 48 h
[9] = tested on: NCI-H226; assay: Growth inhibition of human NCI-H226 cells after 48 hrs by sulforhodamine B assay; format: functional; settings: NCI-H226, 48 h
[10] = tested on: SR; assay: Growth inhibition of human SR cells after 48 hrs by sulforhodamine B assay; format: functional
[11] = tested on: RPMI-8226; assay: Growth inhibition of human RPMI8226 cells after 48 hrs by sulforhodamine B assay; format: functional, cell-based; settings: RPMI-8226, 48 h
[12] = tested on: CCRF-CEM; assay: Growth inhibition of human CCRF-CEM cells after 48 hrs by sulforhodamine B assay; format: functional
[13] = tested on: ACHN; assay: Growth inhibition of human ACHN cells assessed as cell growth at 10 uM after 48 hrs by sulforhodamine B assay; format: functional; settings: read-out: Activity
[14] = tested on: A498; assay: Growth inhibition of human A498 cells assessed as cell growth at 10 uM after 48 hrs by sulforhodamine B assay; format: functional; settings: A498, 48 h, read-out: Activity
[15] = tested on: SK-OV-3; assay: Growth inhibition of human SKOV3 cells assessed as cell growth at 10 uM after 48 hrs by sulforhodamine B assay; format: functional; settings: SK-OV-3, 48 h, read-out: Activity
[16] = Growth inhibition of human NCI-ADR-RES cells assessed as cell growth at 10 uM after 48 hrs by sulforhodamine B assay; format: functional; settings: read-out: Activity
[17] = tested on: IGROV-1; assay: Growth inhibition of human IGROV1 cells assessed as cell growth at 10 uM after 48 hrs by sulforhodamine B assay; format: functional; settings: IGROV-1, 48 h, read-out: Activity
[18] = tested on: Malme-3M; assay: Growth inhibition of human MALME-3M cells assessed as cell growth at 10 uM after 48 hrs by sulforhodamine B assay; format: functional; settings: read-out: Activity
[19] = tested on: U-251; assay: Growth inhibition of human U251 cells assessed as cell growth at 10 uM after 48 hrs by sulforhodamine B assay; format: functional; settings: U-251, 48 h, read-out: Activity
[20] = tested on: HCT-116; assay: Growth inhibition of human HCT116 cells assessed as cell growth at 10 uM after 48 hrs by sulforhodamine B assay; format: functional; settings: HCT-116, 48 h, read-out: Activity
[21] = tested on: COLO 205; assay: Growth inhibition of human COLO205 cells assessed as cell growth at 10 uM after 48 hrs by sulforhodamine B assay; format: functional; settings: COLO 205, 48 h, read-out: Activity
[22] = tested on: NCI-H226; assay: Growth inhibition of human NCI-H226 cells assessed as cell growth at 10 uM after 48 hrs by sulforhodamine B assay; format: functional; settings: NCI-H226, 48 h, read-out: Activity
[23] = tested on: UO-31; assay: Growth inhibition of human UO31 cells after 48 hrs by sulforhodamine B assay; format: functional; settings: UO-31, 48 h
[24] = tested on: TK-10; assay: Growth inhibition of human TK10 cells after 48 hrs by sulforhodamine B assay; format: functional; settings: TK-10, 48 h
[25] = tested on: SN12C; assay: Growth inhibition of human SN12C cells after 48 hrs by sulforhodamine B assay; format: functional
[26] = tested on: A498; assay: Growth inhibition of human A498 cells after 48 hrs by sulforhodamine B assay; format: functional, cell-based; settings: A498, 48 h
[27] = tested on: OVCAR-4; assay: Growth inhibition of human OVCAR4 cells after 48 hrs by sulforhodamine B assay; format: functional; settings: OVCAR-4, 48 h
[28] = tested on: UACC-62; assay: Growth inhibition of human UACC62 cells after 48 hrs by sulforhodamine B assay; format: functional; settings: UACC-62, 48 h
[29] = tested on: UACC-257; assay: Growth inhibition of human UACC257 cells after 48 hrs by sulforhodamine B assay; format: functional; settings: UACC-257, 48 h
[30] = tested on: MDA-MB-435; assay: Growth inhibition of human MDA-MB-435 cells after 48 hrs by sulforhodamine B assay; format: functional, cell-based; settings: MDA-MB-435, 48 h
[31] = tested on: M14; assay: Growth inhibition of human M14 cells after 48 hrs by sulforhodamine B assay; format: functional; settings: M14, 48 h
[32] = tested on: SNB-75; assay: Growth inhibition of human SNB75 cells after 48 hrs by sulforhodamine B assay; format: functional; settings: SNB-75, 48 h
[33] = tested on: SF-268; assay: Growth inhibition of human SF268 cells after 48 hrs by sulforhodamine B assay; format: functional; settings: SF-268, 48 h
[34] = tested on: K562; assay: Growth inhibition of human K562 cells assessed as cell growth at 10 uM after 48 hrs by sulforhodamine B assay; format: functional; settings: K562, 48 h, read-out: Activity
[35] = tested on: CCRF-CEM; assay: Growth inhibition of human CCRF-CEM cells assessed as cell growth at 10 uM after 48 hrs by sulforhodamine B assay; format: functional; settings: read-out: Activity
[36] = read-out: LC50 (the source's name)

Compound: COc1cc(-c2nn(-c3cccc(NC(=O)Nc4ccc(Cl)c(C(F)(F)F)c4)c3)cc2-c2ccncc2)ccc1Cl
- growth at 10 µM [1]: 0.62%
- growth at 10 µM [2]: 0.14%
- growth at 10 µM [3]: -52.4%
- growth at 10 µM [4]: 20.3%
- growth at 10 µM [5]: 14.7%
- GI50 [6]: 1.29 µM
- TGI [6]: 29.9 µM
- CC50 [6, 36]: > 32.5 µM
- GI50 [7]: 1.06 µM
- TGI [7]: 3.92 µM
- CC50 [7, 36]: 14.9 µM
- GI50 [8]: 1.55 µM
- TGI [8]: 7.3 µM
- CC50 [8, 36]: > 32.5 µM
- GI50 [9]: 1.82 µM
- TGI [9]: > 32.5 µM
- CC50 [9, 36]: > 32.5 µM
- GI50 [10]: 0.884 µM
- TGI [10]: 2.48 µM
- CC50 [10, 36]: > 32.5 µM
- GI50 [11]: 0.868 µM
- IC50 [11]: 0.87 µM
- TGI [11]: 3.25 µM
- CC50 [11, 36]: > 32.5 µM
- GI50 [12]: 0.98 µM
- LC50 [12]: > 32.5 µM
- TGI [12]: > 32.5 µM
- growth at 10 µM [13]: 9.33%
- growth at 10 µM [14]: -6.71%
- growth at 10 µM [15]: 0.43%
- growth at 10 µM [16]: -0.86%
- growth at 10 µM [17]: 25.6%
- growth at 10 µM [18]: -14.9%
- growth at 10 µM [19]: -20.9%
- growth at 10 µM [20]: 5.3%
- growth at 10 µM [21]: -91.6%
- growth at 10 µM [22]: 12.1%
- GI50 [23]: 0.865 µM
- TGI [23]: 4.1 µM
- CC50 [23, 36]: > 32.5 µM
- GI50 [24]: 1.52 µM
- TGI [24]: 13.5 µM
- CC50 [24, 36]: > 32.5 µM
- GI50 [25]: 1.14 µM
- TGI [25]: 9.23 µM
- CC50 [25, 36]: > 32.5 µM
- GI50 [26]: 0.837 µM
- IC50 [26]: 0.84 µM
- TGI [26]: 6.97 µM
- CC50 [26, 36]: > 32.5 µM
- GI50 [27]: 1.29 µM
- LC50 (concentration killing 50% of cells) [27]: > 32.5 µM
- TGI [27]: 25.6 µM
- GI50 [28]: 0.737 µM
- LC50 (50% lethal concentration) [28]: 11.6 µM
- TGI [28]: 2.09 µM
- GI50 [29]: 1.21 µM
- TGI [29]: 6.03 µM
- CC50 [29, 36]: 29.2 µM
- GI50 [30]: 0.683 µM
- IC50 [30]: 0.68 µM
- TGI [30]: 1.69 µM
- CC50 [30, 36]: > 32.5 µM
- GI50 [31]: 1.08 µM
- LC50 (concentration killing 50% of cells) [31]: 19.1 µM
- TGI [31]: 3.71 µM
- GI50 [32]: 1.28 µM
- LC50 (lethal concentration, 50% net cell kill) [32]: > 32.5 µM
- TGI [32]: 10.3 µM
- GI50 [33]: 1.46 µM
- TGI [33]: 9.14 µM
- CC50 [33, 36]: > 32.5 µM
- growth at 10 µM [34]: 3.8%
- growth at 10 µM [35]: -8.04%
